# Like-named read-outs stand apart in the source and are kept apart here.
# How the values were obtained:
# [1] = system: TNFα production in LPS-stimulated human monocytes; test: Cot Monocyte TNFα Cell Based Assay; details: Homo sapiens, Monocyte, read-out: EC50 TNF
# Method in brief: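 TR-FRET read-out of total secreted TNFα, normalized as % control (unstimulated = 0%, LPS-stimulated = 100%). Cells (5,000/well) were exposed to compound 1 h at 37 °C, then to 50 pg/ml LPS for a further 4 h.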
# [2] = target: T1, human Cot catalytic domain (30-397 amino acids) (Homo sapiens, UniProt P41279); test: High Throughput Cot Biochemical Assay (KinEASE TR-FRET); details: read-out: IC50 HTRF
# T1 construct: Purified recombinant human Cot catalytic domain (30-397 amino acids) was purchased from Cama Biosciences; purchased Cama Biosciences (so in the source)
# Method in brief: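 TR-FRET readout: Eu-labeled phospho-specific antibody binds XL665-tagged STK3 peptide after phosphorylation by Cot (aa 30-397, 5 nM). Conditions: 400 μM ATP, 1 μM peptide, MOPS pH 7.0 buffer with MgOAc, DTT, BSA, NP-40, glycerol; 0.1% DMSO.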
# [3] = TNFα in LPS-stimulated human monocytes
# [4] = Cot biochemical HTRF (KinEASE TR-FRET) assay
# [5] = Cot KinEASE TR-FRET (HTRF) biochemical assay, 400 μM ATP
# [6] = LPS-stimulated human monocytes, TNFα TR-FRET
# [7] = Cot KinEASE TR-FRET, 400 μM ATP
# T1 sequence (P41279 30-397): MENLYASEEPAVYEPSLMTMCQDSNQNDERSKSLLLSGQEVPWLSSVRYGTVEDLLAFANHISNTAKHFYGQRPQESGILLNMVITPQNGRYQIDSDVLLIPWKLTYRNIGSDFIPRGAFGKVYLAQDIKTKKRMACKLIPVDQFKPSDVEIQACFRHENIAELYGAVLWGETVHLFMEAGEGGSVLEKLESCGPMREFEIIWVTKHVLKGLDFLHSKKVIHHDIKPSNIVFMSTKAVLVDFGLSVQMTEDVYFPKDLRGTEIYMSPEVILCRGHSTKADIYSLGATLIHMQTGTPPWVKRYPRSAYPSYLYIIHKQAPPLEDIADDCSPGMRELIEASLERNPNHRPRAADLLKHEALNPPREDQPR
SMILES,"EC50 [1, 3]","IC50 [2, 4]","IC50 [2, 5]","EC50 [1, 6]","IC50 [2, 7]"
"Cn1cnc(C(Nc2cc(Cl)c3ncc(C#N)c(Nc4ccc(F)c(Cl)c4)c3c2)c2ccc(F)c(F)c2)c1 (stereo not shown) [Example 869, 8-chloro-4-((3-chloro-4-fluorophenyl)amino)-6-(((3,4-difluorophenyl)(1-methyl-1H-imidazol-4-yl)methyl)amino)quinoline-3-carbonitrile]",2760 nM,125 nM,,,
"[2H][C@](Nc1cc(Cl)c2ncc(C#N)c(N[C@H](CC)c3ccccc3)c2c1)(c1cccc(C#N)c1)c1cn(C2CC2)nn1 [Example 340, 8-chloro-6-(((S)-(3-cyanophenyl)(1-cyclopropyl-1H-1,2,3-triazol-4-yl)methyl-d)amino)-4-(((R)-1-phenylpropyl)amino)quinoline-3-carbonitrile]",57 nM,,2 nM,,
"CNC(=O)c1cccc([C@H](Nc2cc(Cl)c3ncc(C#N)c(NCC(C)(C)C)c3c2)c2cn(C3(C(F)(F)F)CC3)nn2)c1F [Example 1114, (S)-3-(((8-chloro-3-cyano-4-(neopentylamino)quinolin-6-yl)amino)(1-(1-(trifluoromethyl)cyclopropyl)-1H-1,2,3-triazol-4-yl)methyl)-2-fluoro-N-methylbenzamide]",,,,408 nM,5 nM
"CC[C@@H](Nc1c(C#N)cnc2c(Br)cc(N[C@@H](c3cccc(C(N)=O)c3)c3cn(C4CC4)nn3)cc12)c1ccccc1 [Example 944, 3-((S)-((8-bromo-3-cyano-4-(((R)-1-phenylpropyl)amino)quinolin-6-yl)amino)(1-cyc1opropyl-1H-1,2,3-triazol-4-yl)methyl)benzamide]",,,,51 nM,1 nM
"N#Cc1ccccc1[C@H](Nc1cc(Cl)c2ncc(C#N)c(Nc3cnc(F)c(F)c3)c2c1)c1c[nH]nn1 [Example 328, (S)-8-chloro-6-(((2-cyanophenyl)(1H-1,2,3-triazol-4-yl)methyl)amino)-4-((5,6-difluoropyridin-3-yl)amino)quinoline-3-carbonitrile]",1240 nM,,24 nM,,
"Cc1c(-c2cnco2)cccc1[C@H](Nc1cc(Cl)c2ncc(C#N)c(NCC(C)(C)C)c2c1)c1cn(C2(C(F)(F)F)CC2)nn1 [Example 1165, (S)-8-chloro-6-(((2-methyl-3 (oxazol-5-yl)phenyl)(1-(1-(trifluoromethyl)cyclopropyl)-1H-1,2,3-triazol-4-yl)methyl)amino)-4-(neopentylamino)quinoline-3-carbonitrile]",,,,102 nM,9 nM
"[2H][C@](Nc1cc(Cl)c2ncc(C#N)c(Nc3cnc(F)c(F)c3)c2c1)(c1ccc(F)cc1)c1cnn(CF)n1 [Example 330, (S)-8-chloro-4-((5,6-difluoropyridin-3-yl)amino)-6-(((2-(fluoromethyl)-2H-1,2,3-triazol-4-yl)(4-fluorophenyl)methyl-d)amino)quinoline-3-carbonitrile]",> 10000 nM,,1420 nM,,
"CC(C)(C)CCNc1c(C#N)cnc2c(Cl)cc(N[C@@H](c3ccccc3)c3cn(C4CCN(C(C)(C)C)CC4)nn3)cc12 [Example 474, (S)-6-(((1-(1-(tert-butyl)piperidin-4-yl)-1H-1,2,3-triazol-4 yl)(phenyl)methyl)amino)-8-chloro-4-((3,3-dimethylbutyl)amino) quinoline-3-carbonitrile]",1570 nM,68 nM,,,
"[2H][C@](Nc1cc(Cl)c2ncc(C#N)c(Nc3cnc(F)c(F)c3)c2c1)(c1ccc(F)cc1)c1cn(C(C)(C)C)nn1 [Example 381, (S)-6-(((1-(tert-butyl)-1H-1,2,3-triazol-4-yl)(4-fluorophenyl)methyl-d)amino)-8-chloro-4-((5,6-difluoropyridin-3-yl)amino)quinoline-3-carbonitrile]",644 nM,,44 nM,,
[2H][C@](Nc1cc(Cl)c2ncc(C#N)c(N[C@H](CC)c3ccccc3)c2c1)(c1cccc(C#N)c1)c1cn(CC=C)nn1 [Compound 61],75 nM,,3 nM,,
"[2H][C@](Nc1cc(C#N)c2ncc(C#N)c(NCC(C)(C)C)c2c1)(c1ccc(F)cc1)c1cn(C2CC2)nn1 [Example 284, (S)-6-(((1-cyclopropyl-1H-1,2,3-triazol-4-yl)(4-fluorophenyl)methyl-d)amino)-4-(neopentylamino) quinoline-3,8-dicarbonitrile]",52 nM,,4 nM,,
"[2H][C@@](Nc1cc(C#N)c2ncc(C#N)c(Nc3ccc(F)c(Cl)c3)c2c1)(c1cn(C2CC2)nn1)c1ccccc1Cl [Example 182, (S)-4-((3-chloro-4-fluorophenyl)amino)-6-(((2-chlorophenyl)(1-cyclopropyl-1H-1,2,3-triazol-4-yl)methyl-d)amino) quinoline-3,8-dicarbonitrile]",136 nM,,4 nM,,
"[2H][C@](Nc1cc(C)c2ncc(C#N)c(NCC(C)(C)C)c2c1)(c1ccc(F)cc1)c1cn(C2CC2)nn1 [Example 194, (S)-6-(((1-cyclopropyl-1H-1,2,3-triazol-4-yl)(4-fluorophenyl)methyl-d)amino)-8-methyl-4-(neopentylamino) quinoline-3-carbonitrile]",2420 nM,,286 nM,,
"CC(C)(C)N1CCC(n2cc([C@@H](Nc3cc(Cl)c4ncc(C#N)c(NC5C6CC7CC(C6)CC5C7)c4c3)c3ccccc3)nn2)CC1 (stereo partly drawn) [Example 635, 4-(((1S,3S,5S,7S)-adamantan-2-yl)amino)-6-(((S)-(1-(1-(tert-butyl)piperidin-4-yl)-1H-1,2,3-triazol-4-yl)(phenyl)methyl)amino)-8-chloroquinoline-3-carbonitrile]",1080 nM,13 nM,,,
"[2H][C@](Nc1cc(F)c2ncc(C#N)c(NCC(C)(C)C)c2c1)(c1cccc(C#N)c1)c1cn(C2CC2)nn1 [Example 256, (S)-6-(((3-cyanophenyl)(1-cyclopropyl-1H-1,2,3-triazol-4-yl)methyl-d)amino)-8-fluoro-4-(neopentylamino)quinoline-3-carbonitrile]",121 nM,,3 nM,,
"Cc1c([C@H](Nc2cc(C#N)c3ncc(C#N)c(NCC(C)(C)C)c3c2)c2cn(C3(C(F)F)CC3)nn2)cccc1-n1cnnc1 [Example 1073, (S)-6-(((1-(1-(difluoromethyl)cyclopropyl)-1H-1,2,3-triazol-4-yl)(2-methyl-3-(4H-1,2,4-triazol-4-yl)phenyl)methyl)amino)-4-(neopentylamino)quinoline-3,8-dicarbonitrile]",,,,≥ 1000 nM,1 nM

# The next lines start with the values.
"EC50 [1, 3]","IC50 [2, 4]","IC50 [2, 5]","EC50 [1, 6]","IC50 [2, 7]",SMILES
7660 nM,61 nM,,,,"CC(C)(C)N1CCC(n2cc([C@@H](Nc3cc(Cl)c4ncc(C#N)c(Nc5cc(Cl)ccc5F)c4c3)c3ccc(Cl)cc3)nn2)CC1 [Example 652, (S)-6-(((1-(1-(tert-butyl)piperidin-4-yl)-1H-1,2,3-triazol-4-yl)(4-chlorophenyl)methyl)amino)-8-chloro-4-((5-chloro-2-fluorophenyl)amino)quinoline-3-carbonitrile]"
96 nM,6 nM,,,,"CNc1cccc([C@H](Nc2cc(Cl)c3ncc(C#N)c(Nc4ccc(F)c(Cl)c4)c3c2)c2cn(C3CCN(C(C)(C)C)CC3)nn2)c1 [Example 620, (S)-6-(((1-(1-(tert-butyl)piperidin-4-yl)-1H-1,2,3-triazol-4-yl)(3-(methylamino)phenyl)methyl)amino)-8-chloro-4-((3-chloro-4-fluorophenyl)amino)quinoline-3-carbonitrile]"
158 nM,,2 nM,,,CC(O)c1cccc([C@H](Nc2cc(Cl)c3ncc(C#N)c(Nc4ccc(F)c(Cl)c4)c3c2)c2cn(C3CCN(C(C)(C)C)CC3)nn2)c1 (stereo partly shown) [Compound 22]
1160 nM,116 nM,,,,"N#Cc1cnc2c(Cl)cc(N[C@@H](c3ccccc3)c3cn(C4CCN(C5COC5)CC4)nn3)cc2c1Nc1ccc(Cl)c(Cl)c1F [Example 625, (S)-8-chloro-4-((3,4-dichloro-2-fluorophenyl)amino)-6-(((1-(1-(oxetan-3-yl)piperidin-4-yl)-1H-1,2,3-triazol-4-yl)(phenyl)methyl)amino) quinoline-3-carbonitrile]"
6040 nM,7350 nM,,,,"CN(C)Cc1ccc(Nc2c(C#N)cnc3c(Cl)cc(N[C@@H](c4ccc(Cl)cc4)c4cn(C5CCN(C(C)(C)C)CC5)nn4)cc23)cc1 [Example 684, (S)-6-(((1-(1-(tert-butyl)piperidin-4-yl)-1H-1,2,3-triazol-4-yl)(4-chlorophenyl)methyl)amino)-8-chloro-4-((4-((dimethylamino)methyl)phenyl)amino)quinoline-3-carbonitrile]"
1770 nM,315 nM,,,,"Cc1ccc(Nc2c(C#N)cnc3c(Cl)cc(N[C@@H](c4ccc(Cl)cc4)c4cn(C5CCN(C(C)(C)C)CC5)nn4)cc23)cc1 [Example 742, (S)-6-(((1-(1-(tert-butyl)piperidin-4-yl)-1H-1,2,3-triazol-4-yl)(4-chlorophenyl)methyl)amino)-8-chloro-4-(p-tolylamino)quinoline-3-carbonitrile]"
8510 nM,1220 nM,,,,"COc1ncccc1Nc1c(C#N)cnc2c(Cl)cc(N[C@@H](c3ccccc3)c3cn(C4CCN(C(C)(C)C)CC4)nn3)cc12 [Example 480, (S)-6-(((1-(1-(tert-butyl)piperidin-4-yl)-1H-1,2,3-triazol-4-yl)(phenyl)methyl)amino)-8-chloro-4-((2-methoxypyridin-3-yl)amino)quinoline-3-carbonitrile]"

# — patent US10316017B2, “COT modulators and methods of use thereof” (Gilead Sciences, Inc., priority 2015, dated 2019)
